ChEMBL document CHEMBL1926539, “Discovery of novel selective inhibitors of Staphylococcus aureus β-ketoacyl acyl carrier protein synthase III” (Eur J Med Chem, 2012)
pIC50, pKd: −log10 of the molar value. ≈ marks a conversion by molar mass, not a printed value.

Columns and labels:
[1] = test system: Escherichia coli; experiment: Antimicrobial activity against Escherichia coli KCTC 1682 after 20 hrs by 2 fold serial broth dilution method; format: functional; details: KCTC 1682, 20 h
[2] = test system: Enterococcus faecalis; experiment: Antimicrobial activity against Enterococcus faecalis KCTC 2011 after 20 hrs by 2 fold serial broth dilution method; format: functional; details: KCTC 2011, 20 h
[3] = test system: Enterococcus faecium; experiment: Antimicrobial activity against vancomycin-resistant Enterococcus faecium clinical isolate after 20 hrs by 2 fold serial broth dilution method; format: functional
[4] = test system: Staphylococcus aureus; experiment: Antimicrobial activity against Staphylococcus aureus KCTC 1621 after 20 hrs by 2 fold serial broth dilution method; format: functional; details: KCTC 1621, 20 h
[5] = test system: Staphylococcus aureus; experiment: Antimicrobial activity against methicillin-resistant Staphylococcus aureus CCARM 3114 after 20 hrs by 2 fold serial broth dilution method; format: functional; details: CCARM 3114, 20 h
[6] = Inhibition of Staphylococcus aureus recombinant GST-tagged KAS3 expressed in Escherichia coli (DE3) at 1:10 protein to drug ratio by fluorescence quenching analysis
[7] = Cytotoxicity against mouse NIH/3T3 cells assessed as cell survival at 100 nM after 24 hrs by MTT assay; format: cell-based, NIH3T3; details: read-out: Activity
[8] = test system: NIH3T3; experiment: Cytotoxicity against mouse NIH/3T3 cells after 24 hrs by MTT assay; format: cell-based; details: NIH3T3, 24 h
[9] = test system: NIH3T3; experiment: Cytotoxicity against mouse NIH/3T3 assessed as cell survival at MIC after 24 hrs by MTT assay; format: cell-based; details: nih3t3, 24 h

With `Oc1ccc(/C=N/c2cc(Cl)cc(Cl)c2)c(O)c1` the MIC [1] was 64 µg/mL (≈ 227 µM), the MIC [2] was 512 µg/mL (≈ 1810 µM) and the MIC [3] was greater than 512 µg/mL. The MIC [4] was 64 µg/mL (≈ 227 µM), the MIC [5] was 128 µg/mL (≈ 454 µM) and the pKd [6] was 6.21.

For `Nc1ccc(NC(=O)NC2CCCCC2)cc1[N+](=O)[O-]`, the MIC [1] was greater than 512 µg/mL, the MIC [2] was 128 µg/mL (≈ 460 µM) and the MIC [3] was 256 µg/mL (≈ 920 µM). For the same compound, the MIC [4] was greater than 512 µg/mL, the MIC [5] was greater than 512 µg/mL and the pKd [6] was 3.19.

Work on `CCOC(=O)/C(C#N)=C/c1ccc(O)cc1O` yielded an MIC [1] greater than 512 µg/mL, an MIC [2] of 256 µg/mL (≈ 1100 µM) and an MIC [3] greater than 512 µg/mL. For the same compound, the MIC [4] was greater than 512 µg/mL, the MIC [5] was 256 µg/mL (≈ 1100 µM) and the pKd [6] was 4.36.

For `NC(=O)C1(C(N)=O)OC1c1ccc(Cl)c(Cl)c1` (stereo not given), the MIC [1] was 256 µg/mL (≈ 931 µM), the MIC [2] was 256 µg/mL (≈ 931 µM) and the MIC [3] was 32 µg/mL (≈ 116 µM). The MIC [4] was 256 µg/mL (≈ 931 µM), the MIC [5] was 256 µg/mL (≈ 931 µM) and the pKd [6] was less than 3.00.

Compound `Oc1ccc(/C=N/Nc2ccc(C(F)(F)F)cn2)c(O)c1` has an MIC [1] of 512 µg/mL (≈ 1720 µM), an MIC [2] of 64 µg/mL (≈ 215 µM) and an MIC [3] of 32 µg/mL (≈ 108 µM). For the same compound, the MIC [4] was 2 µg/mL (≈ 6.73 µM), the MIC [5] was 4 µg/mL (≈ 13.5 µM) and the pKd [6] was 9.10. It also gave a viability at 24 h, 0.1 µM [7] of 67%.

With `CCCCCC12CCC(O)(CC1)CC2O` (stereo not given) the MIC [1] was greater than 512 µg/mL, the MIC [2] was greater than 512 µg/mL and the MIC [3] was greater than 512 µg/mL. It also gave an MIC [4] greater than 512 µg/mL, an MIC [5] greater than 512 µg/mL and a pKd [6] of less than 3.00.

Work on `Cc1cccc(NC(=O)CC2SC(=O)NC2=O)c1` (stereo not given) yielded an MIC [1] greater than 512 µg/mL, an MIC [2] greater than 512 µg/mL and an MIC [3] greater than 512 µg/mL. For the same compound, the MIC [4] was greater than 512 µg/mL, the MIC [5] was greater than 512 µg/mL and the pKd [6] was less than 3.00.

Work on `Cc1nc(CC(=O)c2c(C)cc(O)cc2O)cs1` yielded an MIC [1] greater than 512 µg/mL, an MIC [2] greater than 512 µg/mL and an MIC [3] greater than 512 µg/mL. The MIC [4] was greater than 512 µg/mL, the MIC [5] was greater than 512 µg/mL and the pKd [6] was less than 3.00.

`CCOC(=O)N/N=C/c1ccc(O)cc1O` showed an MIC [1] greater than 512 µg/mL, an MIC [2] greater than 512 µg/mL and an MIC [3] of 256 µg/mL (≈ 1140 µM). It also gave an MIC [4] of 256 µg/mL (≈ 1140 µM), an MIC [5] of 512 µg/mL (≈ 2280 µM) and a pKd [6] of 5.83.

For `C=C/C(C)=C/[C@@]1(C)SC(=O)C(C)=C1O` [THIOLACTOMYCIN], the MIC [3] was 128 µg/mL (≈ 609 µM), the pKd [6] was 4.26 and the viability at 24 h, 0.1 µM [7] was 85%.

`OC[C@@H]1O[C@H](Oc2cccc(Cl)c2)[C@H](O)[C@H](O)[C@H]1O` showed an MIC [1] greater than 512 µg/mL, an MIC [2] greater than 512 µg/mL and an MIC [3] of 256 µg/mL (≈ 881 µM). For the same compound, the MIC [4] was greater than 512 µg/mL, the MIC [5] was greater than 512 µg/mL and the pKd [6] was 6.44.

`O=C(N/N=C/c1ccc(O)c(O)c1O)c1ccc(Cl)cc1Cl` gave an MIC [1] of 64 µg/mL (≈ 188 µM), an MIC [2] of 32 µg/mL (≈ 93.8 µM) and an MIC [3] of 32 µg/mL (≈ 93.8 µM). It also gave an MIC [4] of 4 µg/mL (≈ 11.7 µM), an MIC [5] of 4 µg/mL (≈ 11.7 µM) and a pKd [6] of 8.14. The pIC50 [8] was 4.96 and the Activity [9] was “Non-toxic”.

With `O=[N+]([O-])c1ccccc1N/N=C/c1ccc(O)c(O)c1` the MIC [1] was greater than 512 µg/mL, the MIC [2] was 256 µg/mL (≈ 937 µM) and the MIC [3] was 256 µg/mL (≈ 937 µM). It also gave an MIC [4] greater than 512 µg/mL, an MIC [5] greater than 512 µg/mL and a pKd [6] of 5.50.

`COc1ccccc1NC(=O)c1nc[nH]n1` gave an MIC [1] greater than 512 µg/mL, an MIC [2] greater than 512 µg/mL and an MIC [3] greater than 512 µg/mL. For the same compound, the MIC [4] was greater than 512 µg/mL, the MIC [5] was greater than 512 µg/mL and the pKd [6] was 4.47.

Compound `Cc1n[nH]c(C)c1CCC(=O)N/N=C/c1ccc(O)cc1O` has an MIC [1] of 256 µg/mL (≈ 847 µM), an MIC [2] greater than 512 µg/mL and an MIC [3] greater than 512 µg/mL. For the same compound, the MIC [4] was 128 µg/mL (≈ 423 µM), the MIC [5] was 128 µg/mL (≈ 423 µM) and the pKd [6] was 6.64.

Compound `Oc1ccc(/C=N/Nc2nccnc2Cl)c(O)c1` has an MIC [1] greater than 512 µg/mL, an MIC [2] greater than 512 µg/mL and an MIC [3] of 32 µg/mL (≈ 121 µM). For the same compound, the MIC [4] was 1 µg/mL (≈ 3.78 µM), the MIC [5] was 1 µg/mL (≈ 3.78 µM) and the pKd [6] was 9.52. The pIC50 [8] was 4.99 and the Activity [9] was “Non-toxic”.

With `Cc1nc2ccccc2c(=O)n1/N=C/c1ccc(O)cc1O` the MIC [1] was greater than 512 µg/mL, the MIC [2] was greater than 512 µg/mL and the MIC [3] was greater than 512 µg/mL. It also gave an MIC [4] greater than 512 µg/mL, an MIC [5] greater than 512 µg/mL and a pKd [6] of 9.05.

Work on `Oc1ccc(/C=N/c2ccc(Cl)cc2Cl)c(O)c1` yielded an MIC [1] of 64 µg/mL (≈ 227 µM), an MIC [2] greater than 512 µg/mL and an MIC [3] greater than 512 µg/mL. For the same compound, the MIC [4] was 128 µg/mL (≈ 454 µM), the MIC [5] was 128 µg/mL (≈ 454 µM) and the pKd [6] was 6.14.
